These results are taken from ChEMBL document CHEMBL1641542, “Structure-activity relationships of 2,4-diphenyl-1H-imidazole analogs as CB2 receptor agonists for the treatment of chronic pain” (Bioorg Med Chem Lett, 2011).

Data set [1] concerns the target T1, Cannabinoid receptor 2 (Homo sapiens, UniProt P34972). As to the kind of experiment: Agonist activity at human cloned CB2 receptor expressed in CHO cells assessed as inhibition of forskolin-induced cAMP accumulation relative to control. Format: functional, cell-based. For orientation: Cyclic AMP is a second messenger, typically raised through Gs and lowered through Gi signalling.

In data set [2] the target is T1, Cannabinoid receptor 2. Briefly: Agonist activity at human cloned CB2 receptor expressed in CHO cells assessed as inhibition of forskolin-induced cAMP accumulation. Format: functional, cell-based.
The target of data set [3] is T2, Cannabinoid receptor 1 (Homo sapiens, UniProt P21554). Briefly: Agonist activity at human cloned CB1 receptor expressed in CHO cells assessed as inhibition of forskolin-induced cAMP accumulation. Format: functional, cell-based.
T2 sequence (P21554 whole entry): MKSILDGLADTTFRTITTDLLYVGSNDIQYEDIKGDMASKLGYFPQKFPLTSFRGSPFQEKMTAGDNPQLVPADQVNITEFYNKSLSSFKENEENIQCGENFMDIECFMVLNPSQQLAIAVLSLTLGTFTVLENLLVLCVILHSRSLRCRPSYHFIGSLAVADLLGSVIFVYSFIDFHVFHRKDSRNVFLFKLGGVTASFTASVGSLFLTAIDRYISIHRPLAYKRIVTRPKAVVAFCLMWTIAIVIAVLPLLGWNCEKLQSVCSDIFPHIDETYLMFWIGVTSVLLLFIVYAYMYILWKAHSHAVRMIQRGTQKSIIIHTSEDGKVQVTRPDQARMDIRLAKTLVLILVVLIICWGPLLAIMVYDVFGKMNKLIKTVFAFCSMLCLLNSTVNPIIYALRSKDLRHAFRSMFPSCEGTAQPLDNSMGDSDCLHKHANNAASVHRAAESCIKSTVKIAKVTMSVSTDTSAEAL
Data set [4] in a line: AUC (0 to 6 hrs) in rat at 10 mg/kg, po. Format: ADME, organism-based. On the set-up: time < 6 hr, dose 10 mg/kg, route oral. Particulars: plasma.
In data set [5] the target is T2, Cannabinoid receptor 1. Briefly: Displacement of [3H]-CP55940 from human cloned CB1 receptor expressed in CHO cells. Format: cell-based. A general note: Loss of bound radioactivity is the signal in a displacement assay; it reports binding, not function.
The target of data set [6] is T1, Cannabinoid receptor 2. Briefly: Displacement of [3H]-CP55940 from human cloned CB2 receptor expressed in CHO cells. Format: cell-based.
For data set [7], the target named is T2, Cannabinoid receptor 1. Briefly: Agonist activity at human cloned CB1 receptor expressed in CHO cells assessed as inhibition of forskolin-induced cAMP accumulation relative to control. Format: functional, cell-based.

T1 sequence (P34972 whole entry): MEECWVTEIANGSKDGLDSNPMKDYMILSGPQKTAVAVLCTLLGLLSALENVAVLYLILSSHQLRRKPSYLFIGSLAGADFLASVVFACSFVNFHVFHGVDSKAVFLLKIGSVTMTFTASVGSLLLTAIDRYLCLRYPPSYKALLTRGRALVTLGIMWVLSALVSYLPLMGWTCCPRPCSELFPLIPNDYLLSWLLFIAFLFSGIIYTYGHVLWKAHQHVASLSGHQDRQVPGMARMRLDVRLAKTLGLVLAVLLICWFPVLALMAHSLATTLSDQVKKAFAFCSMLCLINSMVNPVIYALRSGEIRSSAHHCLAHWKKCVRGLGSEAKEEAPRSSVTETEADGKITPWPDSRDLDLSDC

The term Emax denotes the maximal effect, on the per cent scale that the assay sets. Broadly, the EC50 is the concentration that produces a half-maximal response. Take `CC1CN(Cc2cccc(-c3nc(-c4cccc(Cl)c4)c[nH]3)c2)CCO1` (centres undefined): the maximum response (Emax) on Cannabinoid receptor 2 [1] is 102%. The values for the EC50 on Cannabinoid receptor 2 [2] and at Cannabinoid receptor 1 [3] were 14 nM and 3250 nM, respectively.
In general, AUC(0-t) refers to the area under the concentration-time curve up to a stated or last time point. A lower AUC(0-t) goes with less exposure. The compound `FC1CCN(Cc2cccc(-c3nc(-c4cccc(C(F)(F)F)c4)c[nH]3)c2)CC1` displayed an exposure AUC(0-t) at 6 h in data set [4] of 0.524 µM·h. The Emax at Cannabinoid receptor 2 [1] is 107%. The EC50 at Cannabinoid receptor 2 [2] stood at 9 nM; at Cannabinoid receptor 1 [3], 2290 nM.
For `CC(C)n1cc(-c2cccc(C(F)(F)F)c2)nc1-c1cccc(CN2CCOCC2)c1`, the values for the concentration for a half-maximal effect (EC50) at Cannabinoid receptor 2 [2] and on Cannabinoid receptor 1 [3] were 218 nM and greater than 1000 nM, respectively.
`Brc1cccc(-c2c[nH]c(-c3cccc(CN4CCOCC4)c3)n2)c1` gave an AUC(0-t) at 6 h in data set [4] of 0.158 µM·h. Besides, the Emax on Cannabinoid receptor 2 [1] amounted to 112%. In addition, the results for the EC50 at Cannabinoid receptor 2 [2] and on Cannabinoid receptor 1 [3] were 5 nM and 665 nM, respectively.
Take `FC(F)(F)c1cccc(-c2cn(CC3CC3)c(-c3cccc(CN4CCOCC4)c3)n2)c1`: the Emax at Cannabinoid receptor 2 [1] came to 68%. For the same compound, the EC50 is 412 nM on Cannabinoid receptor 2 [2] and greater than 1000 nM at Cannabinoid receptor 1 [3].
Take `FC(F)(F)c1cccc(-c2c[nH]c(-c3cccc(CN4CCCCC4)c3)n2)c1`: the AUC(0-t) at 6 h in data set [4] amounted to 0.537 µM·h. Moreover, the maximal response (Emax) on Cannabinoid receptor 2 [1] stood at 104%. In addition, the results for the EC50 at Cannabinoid receptor 2 [2] and at Cannabinoid receptor 1 [3] were 14 nM and greater than 10000 nM, respectively.
For `CC1CN(Cc2ccccc2-c2nc(-c3cccc(C(F)(F)F)c3)c[nH]2)CCO1` (centres undefined), the Emax at Cannabinoid receptor 2 [1] worked out at 102%. Moreover, the EC50 on Cannabinoid receptor 2 [2] is 510 nM; on Cannabinoid receptor 1 [3] it was greater than 10000 nM.
The compound `CC1CCN(Cc2cccc(-c3nc(-c4cccc(C(F)(F)F)c4)c[nH]3)c2)CC1` gave an AUC(0-t) at 6 h in data set [4] of 0.881 µM·h. For the same compound, the maximal response (Emax) on Cannabinoid receptor 2 [1] was 97%. In addition, the EC50 on Cannabinoid receptor 2 [2] was 21 nM; on Cannabinoid receptor 1 [3], greater than 10000 nM.
For the compound `FC1CCN(Cc2cccc(-c3nc(-c4cccc(Cl)c4)c[nH]3)c2)CC1`, the maximal response (Emax) at Cannabinoid receptor 2 [1] is 107%. Also, the EC50 at Cannabinoid receptor 2 [2] came to 8 nM; at Cannabinoid receptor 1 [3], 130 nM.
The matching figures for `COc1ccc(F)c(-c2c[nH]c(-c3cccc(CN4CCCCC4)c3)n2)c1`: 108%, 4 nM and 320 nM.
For `Clc1cccc(-c2c[nH]c(-c3cccc(CN4CCCCC4)c3)n2)c1Cl` the same measures were 115%, 8 nM and 12600 nM.
On to `COc1ccc(F)c(-c2c[nH]c(-c3cccc(CN4CCC(F)CC4)c3)n2)c1`, for which the maximal effect (Emax) at Cannabinoid receptor 2 [1] stood at 106%. The concentration giving a half-maximal response (EC50) came out at 5 nM at Cannabinoid receptor 2 [2] and 87 nM on Cannabinoid receptor 1 [3].
Consider `COc1ccc(F)c(-c2c[nH]c(-c3cccc(CN4CCC(F)(F)CC4)c3)n2)c1`, for which the Emax on Cannabinoid receptor 2 [1] is 107%. For the same compound, the figures for the EC50 at Cannabinoid receptor 2 [2] and on Cannabinoid receptor 1 [3] were 5 nM and 25 nM, respectively.
As to `OCC1CCCN(Cc2cccc(-c3nc(-c4cccc(C(F)(F)F)c4)c[nH]3)c2)C1` (centres undefined), on Cannabinoid receptor 2 [1], the Emax worked out at 91%. Further, the half-maximal effective concentration (EC50) at Cannabinoid receptor 2 [2] is 61 nM; at Cannabinoid receptor 1 [3] it was greater than 1000 nM.
For `FC1CCN(Cc2ccccc2-c2nc(-c3cccc(C(F)(F)F)c3)c[nH]2)CC1` the same measures were 108%, 130 nM and greater than 10000 nM.
`CC1CCCN(Cc2cccc(-c3nc(-c4cccc(C(F)(F)F)c4)c[nH]3)c2)C1` (centres undefined): in data set [4], the AUC(0-t) at 6 h is 1.41 µM·h. Also, the Emax on Cannabinoid receptor 2 [1] was determined as 87%. Moreover, the concentration for a half-maximal effect (EC50) at Cannabinoid receptor 2 [2] was found to be 70 nM.
In the case of `COc1ccc(-c2c[nH]c(-c3cccc(CN4CCC(F)(F)CC4)c3)n2)c(F)c1`, the maximal response (Emax) at Cannabinoid receptor 2 [1] was 107%. In addition, the values for the EC50 on Cannabinoid receptor 2 [2] and at Cannabinoid receptor 1 [3] were 3 nM and 39 nM, respectively.
For `Clc1ccc(-c2c[nH]c(-c3cccc(CN4CCCCC4)c3)n2)c(Cl)c1` the same measures were 104%, 24 nM and 1800 nM.
For the compound `FC(F)(F)c1cccc(-c2cn(-c3ccccc3)c(-c3cccc(CN4CCOCC4)c3)n2)c1`, on Cannabinoid receptor 2 [2], the concentration giving a half-maximal response (EC50) was greater than 1000 nM.
For `Clc1cccc(-c2c[nH]c(-c3cccc(CN4CCCCC4)c3)n2)c1`, the maximal response (Emax) on Cannabinoid receptor 2 [1] was 114%. Also, the concentration for a half-maximal effect (EC50) is 10 nM at Cannabinoid receptor 2 [2] and 1050 nM at Cannabinoid receptor 1 [3].
For `FC1(F)CCCN(Cc2cccc(-c3nc(-c4cccc(C(F)(F)F)c4)c[nH]3)c2)C1`, in data set [4], the AUC(0-t) at 6 h was 0.851 µM·h. Also, at Cannabinoid receptor 2 [1], the Emax came to 98%. In addition, the EC50 at Cannabinoid receptor 2 [2] turned out to be 25 nM.
For the compound `C[C@H]1COCCN1Cc1cccc(-c2nc(-c3cccc(C(F)(F)F)c3)c[nH]2)c1`, the maximum response (Emax) at Cannabinoid receptor 2 [1] came out at 78%. Moreover, on Cannabinoid receptor 2 [2], the EC50 came to 169 nM.
`O=S(=O)(c1ccccc1)n1cc(-c2cccc(C(F)(F)F)c2)nc1-c1cccc(CN2CCOCC2)c1`: the EC50 at Cannabinoid receptor 2 [2] was greater than 1000 nM.
For `FC(F)(F)c1cccc(-c2cn(Cc3ccccc3)c(-c3cccc(CN4CCOCC4)c3)n2)c1`, the concentration for a half-maximal effect (EC50) on Cannabinoid receptor 2 [2] and on Cannabinoid receptor 1 [3] was greater than 1000 nM throughout.
For the compound `CC(=O)n1cc(-c2cccc(C(F)(F)F)c2)nc1-c1cccc(CN2CCOCC2)c1`, the Emax at Cannabinoid receptor 2 [1] was found to be 102%. The concentration for a half-maximal effect (EC50) at Cannabinoid receptor 2 [2] is 9 nM; at Cannabinoid receptor 1 [3], greater than 1000 nM.
For `CC1CCN(Cc2cccc(-c3nc(-c4cccc(Cl)c4Cl)c[nH]3)c2)CC1` the same measures were 107%, 25 nM and greater than 10000 nM.
In data set [4], `FC1(F)CCN(Cc2cccc(-c3nc(-c4cccc(C(F)(F)F)c4)c[nH]3)c2)CC1` returned an AUC(0-t) at 6 h of 1.11 µM·h. In addition, the Emax on Cannabinoid receptor 2 [1] is 100%. Further, the EC50 is 5 nM at Cannabinoid receptor 2 [2] and 2550 nM at Cannabinoid receptor 1 [3].
For `O[C@H]1CCCN(Cc2cccc(-c3nc(-c4cccc(C(F)(F)F)c4)c[nH]3)c2)C1`, the Emax at Cannabinoid receptor 2 [1] came to 92%. In addition, the EC50 is 113 nM at Cannabinoid receptor 2 [2] and greater than 10000 nM at Cannabinoid receptor 1 [3].
`FC1CCCN(Cc2cccc(-c3nc(-c4cccc(C(F)(F)F)c4)c[nH]3)c2)C1` (centres undefined) returned an area under the curve AUC(0-t) at 6 h in data set [4] of 0.682 µM·h. The Emax at Cannabinoid receptor 2 [1] was 98%. In addition, the EC50 at Cannabinoid receptor 2 [2] is 16 nM.
`CC1CN(Cc2cccc(-c3nc(-c4cccc(C(F)(F)F)c4)c[nH]3)c2)CCO1` (centres undefined) displayed an AUC(0-t) at 6 h in data set [4] of 1.99 µM·h. Moreover, on Cannabinoid receptor 2 [1], the Emax was determined as 97%. Also, the values for the concentration giving a half-maximal response (EC50) on Cannabinoid receptor 2 [2] and at Cannabinoid receptor 1 [3] were 25 nM and greater than 10000 nM, respectively.
`FC1CCN(Cc2cccc(-c3nc(-c4cccc(Cl)c4Cl)c[nH]3)c2)CC1`: the Emax at Cannabinoid receptor 2 [1] is 119%. Moreover, the 50% effective concentration (EC50) stood at 5 nM on Cannabinoid receptor 2 [2] and 1290 nM on Cannabinoid receptor 1 [3].
The matching figures for `CCOc1ccc(F)c(-c2c[nH]c(-c3cccc(CN4CCCCC4)c3)n2)c1`: 102%, 87 nM and 8500 nM.
One may read the Ki as a measure of affinity in units of concentration, obtained from inhibition or displacement. Read a low Ki as tighter binding. For `FC(F)(F)c1cccc(-c2c[nH]c(-c3cccc(CN4CCOCC4)c3)n2)c1`, the Ki at Cannabinoid receptor 1 [5] turned out to be 1000 nM; at Cannabinoid receptor 2 [6], 42 nM. This compound also came in with an AUC(0-t) at 6 h in data set [4] of 0.866 µM·h. For the same compound, the Emax at Cannabinoid receptor 2 [1] worked out at 80%; on Cannabinoid receptor 1 [7], 67%. Besides, the EC50 on Cannabinoid receptor 2 [2] is 8 nM; at Cannabinoid receptor 1 [3], greater than 1000 nM.
Consider `COc1ccc(F)c(-c2c[nH]c(-c3cccc(CN4CCOCC4)c3)n2)c1`, for which, at Cannabinoid receptor 2 [1], the Emax was found to be 109%. Moreover, the EC50 at Cannabinoid receptor 2 [2] worked out at 4 nM; at Cannabinoid receptor 1 [3], 140 nM.
As for `FC(F)(F)c1cccc(-c2c[nH]c(-c3cccc(CN4CCSCC4)c3)n2)c1`, in data set [4], the AUC(0-t) at 6 h is 0.042 µM·h. Also, the maximum response (Emax) on Cannabinoid receptor 2 [1] was 100%. In addition, the EC50 at Cannabinoid receptor 2 [2] was 6 nM; on Cannabinoid receptor 1 [3], greater than 1000 nM.
For the compound `O=C(c1ccccc1)n1cc(-c2cccc(C(F)(F)F)c2)nc1-c1cccc(CN2CCOCC2)c1`, at Cannabinoid receptor 2 [1], the maximum response (Emax) stood at 101%. For the same compound, the concentration giving a half-maximal response (EC50) at Cannabinoid receptor 2 [2] was 11 nM.
Take `FC1CCN(Cc2cccc(-c3nc(-c4ccc(Cl)cc4Cl)c[nH]3)c2)CC1`: the maximal effect (Emax) at Cannabinoid receptor 2 [1] was found to be 107%. Also, the concentration giving a half-maximal response (EC50) on Cannabinoid receptor 2 [2] amounted to 10 nM; at Cannabinoid receptor 1 [3], 2450 nM.
